From US7432045B2 (priority 2003, dated 2008)
pEC50, pIC50: −log10 of the molar value. Like-named read-outs stand apart in the source and are kept apart here. Peptide text beside a SMILES is read from it.

How the values were obtained:
MTS assay = conditions: human, CEMx174 cells (T-B hybridoma)
HSV-1 KOS virions = assay: Electron microscopy of peptide-treated virus (aggregation)
Experimental: Electron microscopy: Purified HSV-1 KOS virions (2.5×10^7 pfu/mL) according to Visalli et al., Virus Res. 29:167 (1993) were treated with 25 μM antiviral peptide SEQ ID NO:1 or the control peptide EBX (SEQ ID NO:17) in 40 μL serum-free DMEM buffered with 25 mM Hepes (pH 7.4) for 5 to 60 min at 4 or 23° C. Aliquots (10 μL) were adsorbed to pioloform poly-L-lysine-coated grids for 5 min at 23° C. Grids were rinsed with PBS, stained with 2% phosphotungstic acid (PTA) in water adjusted to pH ˜6, and air dried. Alternatively, virus was pre-adsorbed to grids and treated with peptides thereafter. A total of 4×10^9 pfu/mL of purified HSV-1 KOS in 5 μL PBS was applied to the coated grids for 5 min at 23° C., and the grids were rinsed once with serum-free DMEM buffered with 25 mM Hepes (pH 7.4) and treated with 15 μL of 5 mM EB or EBX in the same medium for 30 min at 37° C. The pH of highly concentrated solutions of antiviral peptide SEQ ID NO:1 and EBX was re-adjusted to 7.4 with NaOH prior to use. To prevent evaporation of the peptide-containing solutions, each grid was held in a Hiraoka flexible staining plate and covered with a miniature bell jar made from an 0.5 mL polypropylene micro-centrifuge tubes, small enough for the 15 μL to fill half of the bell jar facing the coated surface of the grid. The entire assembly was then incubated in a moist chamber for 30 min at 37° C. […]

HSV-1 KOS [1] = conditions: depending on concentration
HSV-1 KOS [2] = assay: Plaque reduction assay; type: cell-based
Experimental: Cell culture and virus: The procedures for growing Vero cells and preparing high titer stocks of HSV-1 KOS as described in Grau et al., Invest. Ophthal. and Vis. Sci. 30: 2474 (1989) were utilized. Vero cells were maintained in carbonate-buffered DMEM supplemented with 5% calf serum and 5% fetal bovine serum (regular medium). For some studies, cells were switched to serum-free DMEM buffered with 25 mM HEPES (pH 7.4) and allowed to adapt to that medium for 30 min prior to experimental treatments. Vero cells were seeded into wells (0.28 cm^2) of microtiter plates either at 3.5×10^4 cells/well for use 1 day later (8×10^4 cells/well) or at 1×10^4 cells/well for use 3 days later (2×10^5 cells/well).
Plaque reduction assay: Confluent Vero cell cultures in microtiter plates were infected for 1 hour at 37° C. in 40 μL of medium. Except where indicated, peptide treatments in 40 μL of medium lasted from 1 hour before through 1 hour after infection. At the end of the adsorption period, the cultures were re-fed with 100 μL of regular medium. Plaque formation was scored 2 days later and the number of plaques scored per well was normalized to the number counted in the absence of peptide. Using an ocular micrometer, plaque size (π/2×L×S) was determined by measuring the largest plaque diameter (L) and the diameter at a 90° angle to that (S). The size of each of the first 40 scored plaques was measured except when a plaque included less than 10 rounded cells or touched the side of the well.

In the case of `CC(C)C[C@H](NC(=O)[C@H](C)NC(=O)[C@H](CC(C)C)NC(=O)[C@H](CC(C)C)NC(=O)[C@@H](NC(=O)[C@H](C)NC(=O)[C@@H]1CCCN1C(=O)[C@H](CC(C)C)NC(=O)[C@H](CC(C)C)NC(=O)[C@H](C)NC(=O)[C@@H](NC(=O)[C@H](C)NC(=O)[C@H](C)NC(=O)[C@H](CCCCN)NC(=O)[C@H](CCCCN)NC(=O)[C@H](CCCNC(=N)N)NC(=O)[C@@H](N)CCCNC(=N)N)C(C)C)C(C)C)C(=O)N[C@@H](CC(C)C)C(=O)N[C@@H](C)C(=O)N1CCC[C@H]1C(=O)O` [EB] (H-RRKKAAVALLPAVLLALLAP-OH), the pEC50 (MTS assay) was 4.30, the “aggregation of virus particles” value (HSV-1 KOS virions; 25 μM peptide) was “nearly all of the particles were seen in relatively few large aggregates” and the “time of aggregate formation” value (HSV-1 KOS virions; room temperature as well as 4° C.) was < 5 min. For the same molecule, the “cytotoxic effects (trypan blue staining)” value (MDCK cells) was “No cytotoxic effects”, the “reduction of virus yields” value (HSV-1 KOS [1]) was “up to eight orders of magnitude” and the “reduction of mean plaque size” value (HSV-1 KOS [2]; 25 μM added 1 hour post-infection) was 70%. For the same molecule, the mean plaque size (HSV-1 KOS [2]; 25 μM added 1 hour post-infection, untreated 66,000±6200) was 6900±2600 μm^2, the “combined mean plaque size after transient treatments” value (HSV-1 KOS [2]; 6 and 12 μM, up to 1 hour post-infection) was 68,000±11,000 μm^2 and the “fold lower concentration blocking infections compared to EBX” value (HSV-1 KOS [2]; absence of serum, FIG. 1B) was 100 fold. For the same molecule, the pIC50 (HSV-1 KOS [2]; absence of serum, FIG. 1B, read-out: antiviral IC50 (plaque formation)) was 6.15, the “fold lower concentration blocking infections compared to EBX” value (HSV-1 KOS [2]; presence of serum (FIG. 1A)) was 10 fold and the pIC50 (HSV-1 KOS [2]; present continuously after infection, read-out: inhibition of plaque expansion IC50) was 4.92. The pIC50 (HSV-1 KOS [2]; present continuously starting 1 hour post-infection, read-out: plaque number IC50) was 4.62 and the pIC50 (HSV-1 KOS [2]; present during infection and 1 hour pre- and post-infection, read-out: plaque number IC50) was 5.26.
